Experimental data published in article PMC11601558, “SLC6A19 inhibition facilitates urinary neutral amino acid excretion and lowers plasma phenylalanine” (JCI Insight, 2024).
“And” between values parts separate entries of the source, which are not always exact repeats. Identical values can stand only once.

Test system: WT C57Bl/6J mice
Assay: Urine amino acid excretion in WT C57Bl/6J mice after JN-170
Type: in vivo, mouse
Design: urine Gln excretion / urine Phe excretion: unit not given here
Conditions: for 12 hour urine Arg (Fig 2b) / 12 hour urine Gln (Fig 2b) / 12 hour urine Glu (Fig 2b) / 12 hour urine His (Fig 2b) / 12 hour urine Lys (Fig 2b) / 12 hour urine Met (Fig 2b) / 12 hour urine Phe (Fig 2b) / 12 hour urine Pro (Fig 2b) / 12 hour urine Ser (Fig 2b) / 12 hour urine Thr (Fig 2b) / 12 hour urine Trp (Fig 2b) / 12 hour urine Tyr (Fig 2b): individual mice
Method: Male homozygous BTBR-Pah<enu2>/J (Pah^enu2) aged 10–13 weeks were purchased from Jackson Laboratory (no. 002232). Immediately before dosing, each animal’s bladder was manually emptied and a plasma sample was drawn. Animals were dosed by oral gavage with vehicle (10% DMSO, 20% 2-hydroxypropyl-β-cyclodextrin [Sigma-Aldrich]) followed by a 1-week washout prior to dosing with JN-170 at doses ranging from 50 to 250 mg/kg. Following dosing with vehicle or JN-170, animals were individually placed in metabolic cages to collect urine samples. After collection of each urine sample, cages were rinsed with ultra-pure water to recover residual analytes. Blood samples were collected predose as well as 1, 3, 8, 12, and 24 hours after dosing with vehicle or JN-170 into tubes with EDTA as a […], and plasma was separated by centrifuging samples at 2,200g for 5 minutes at 4°C. Throughout the study, mice had access to food and water ad libitum. Plasma and urine samples were stored at –80°C until processing.Ten-week-old male WT C57Bl/6J animals (Si Bei Fu Laboratory Animal Technology Co. Ltd.) were dosed either with vehicle or 50–250 mg/kg JN-170 by oral gavage and blood and urine samples were collected as described. All animals had unrestricted access to food and water during the study; C57Bl/6J were kept on rodent maintenance diet from Beijing Keao Xieli, Pah^enu2 mice were kept on Teklad diet no. T.2018.
Urine and cage-wash samples were vortexed and centrifuged at 3,700g for 5 minutes to remove any solid precipitate. Neat samples and samples diluted 1:10 in water were further diluted 1:10 in crash solution (75% acetonitrile 25% methanol, 0.1% formic acid, 5 mM heavy labeled amino acids) to precipitate proteins. Samples were centrifuged at 3,700g for 5 minutes before the supernatant was transferred into an injection plate. Urine amino acid analysis was carried out using a quadrupole time of flight (QToF) LC-mass spectrometry (QToF-LC-MS) bioanalytical method. A standard curve of 1 mM down to 0.06 μM was used as the calibration curve to which samples were quantified. The amino acid concentrations were calculated with a 1/×2 linear regression over a concentration range of 60 nM to 1,000 μM of the individual amino acids. An Agilent QToF 6545 was operated in an accurate mass full scan range of 100–1,700 m/z positive ions formed by electrospray ionization with a normal phase HILIC chromatographic method. An Agilent InfinityLab Poroshell 120 HILIC-Z, 2.1 × 150 mm, 2.7 μm was used as the analytical column with 10 mM Ammonium Acetate in 0.1% FA as mobile phase A and 10 mM Ammonium Acetate in 95% ACN, 0.1% FA as mobile phase B. At a flow rate of 0.25 mL/min, the binary gradient increased from an initial 100% phase B to 90% phase B over 3 minutes. After 1.5 minutes, the gradient ramped to 80% mobile phase B. At 5.6 minutes into the gradient, mobile phase B ramped from 60% to 0% and held for 2 minutes before returning to initial conditions at 7.5 minutes. The gradient was stopped at 10 minutes.Total urine amino acid amounts were calculated by multiplying urine amino acid concentrations by the urine volume and adding the amount of amino acid recovered in the cage wash, which was calculated by multiplying the cage wash amino acid concentration by the cage wash volume.

[1] = Fig S3b, WT mice, individual animals
[2] = WT mice, 0–3 hours after 200 mg/kg

N#Cc1ccc(-c2noc([C@]3(C(F)(F)F)CCN(C(=O)NCCC4(N)CC4)C3)n2)cc1 [JN-170]
12 hour urine Arg (Fig 2b) (50 mg/kg single oral dose): 42.35 µg and 21.61 µg and 86.86 µg and 32.17 µg and 60.46 µg and 54.76 µg
12 hour urine Gln (Fig 2b) (50 mg/kg single oral dose): 1216.88 µg and 424.1 µg and 3207.04 µg and 1668.39 µg and 2208.59 µg and 1050.68 µg
12 hour urine Glu (Fig 2b) (50 mg/kg single oral dose): 29.83 µg and 17.33 µg and 39.89 µg and 30.41 µg and 48.52 µg and 28.91 µg
12 hour urine His (Fig 2b) (50 mg/kg single oral dose): 99.8 µg and 39.7 µg and 232.38 µg and 133.78 µg and 173.51 µg and 97.64 µg
12 hour urine Lys (Fig 2b) (50 mg/kg single oral dose): 34.24 µg and 15.87 µg and 87.69 µg and 25.64 µg and 70.14 µg and 37.6 µg
12 hour urine Met (Fig 2b) (50 mg/kg single oral dose): 22.43 µg and 9.44 µg and 86.47 µg and 39.61 µg and 54.33 µg
12 hour urine Phe (Fig 2b) (50 mg/kg single oral dose): 9.69 µg and 12.9 µg and 44.78 µg and 18.25 µg and 46.82 µg and 10.07 µg
12 hour urine Pro (Fig 2b) (50 mg/kg single oral dose): 8.47 µg and 4.8 µg and 12.9 µg and 9.81 µg and 24.06 µg and 10.26 µg
12 hour urine Ser (Fig 2b) (50 mg/kg single oral dose): 30.76 µg and 12.92 µg and 98.91 µg and 47.01 µg and 97.58 µg and 29.03 µg
12 hour urine Thr (Fig 2b) (50 mg/kg single oral dose): 158.71 µg and 83.75 µg and 358.72 µg and 229.83 µg and 330.77 µg and 183.12 µg
12 hour urine Trp (Fig 2b) (50 mg/kg single oral dose): 7.91 µg and 4.53 µg and 17.51 µg and 12.59 µg and 19.36 µg and 8.39 µg
12 hour urine Tyr (Fig 2b) (50 mg/kg single oral dose): 86.45 µg and 42.23 µg and 289.76 µg and 150.67 µg and 234.77 µg and 101.34 µg
12 hour urine Arg (Fig 2b) (100 mg/kg single oral dose): 84.18 µg and 60.05 µg and 104.07 µg and 105.27 µg and 46.38 µg and 44.86 µg
12 hour urine Gln (Fig 2b) (100 mg/kg single oral dose): 3618.3 µg and 3716.4 µg and 5677.3 µg and 3847.03 µg and 3083.95 µg and 2876.64 µg
12 hour urine Glu (Fig 2b) (100 mg/kg single oral dose): 46.32 µg and 46.97 µg and 58.94 µg and 50.51 µg and 40.88 µg and 28.49 µg
12 hour urine His (Fig 2b) (100 mg/kg single oral dose): 295.94 µg and 255.87 µg and 436.69 µg and 286 µg and 268.58 µg and 216 µg
12 hour urine Lys (Fig 2b) (100 mg/kg single oral dose): 113.28 µg and 69.96 µg and 170.84 µg and 119.16 µg and 64.12 µg and 61.63 µg
12 hour urine Met (Fig 2b) (100 mg/kg single oral dose): 69.6 µg and 61.3 µg and 109.16 µg and 65.46 µg and 59.17 µg and 56.84 µg
12 hour urine Phe (Fig 2b) (100 mg/kg single oral dose): 57.79 µg and 56.42 µg and 118.09 µg and 57.72 µg and 36.93 µg and 35.59 µg
12 hour urine Pro (Fig 2b) (100 mg/kg single oral dose): 8.92 µg and 10.04 µg and 30.88 µg and 13.13 µg and 10.09 µg and 9.04 µg
12 hour urine Ser (Fig 2b) (100 mg/kg single oral dose): 108.24 µg and 109.95 µg and 223.3 µg and 89.79 µg and 97.93 µg and 80.73 µg
12 hour urine Thr (Fig 2b) (100 mg/kg single oral dose): 506.96 µg and 408.61 µg and 713.8 µg and 526.01 µg and 450.28 µg and 363.04 µg
12 hour urine Trp (Fig 2b) (100 mg/kg single oral dose): 23.65 µg and 18.61 µg and 32.89 µg and 21.7 µg and 20.33 µg and 13.52 µg
12 hour urine Tyr (Fig 2b) (100 mg/kg single oral dose): 347.53 µg and 292.84 µg and 493.76 µg and 286.11 µg and 269.6 µg and 215.7 µg
12 hour urine Arg (Fig 2b) (200 mg/kg single oral dose): 57.75 µg and 78.23 µg and 75.91 µg and 43.73 µg and 83.72 µg and 75.77 µg
12 hour urine Gln (Fig 2b) (200 mg/kg single oral dose): 4199.73 µg and 4322.77 µg and 4076.82 µg and 4061.16 µg and 5861.18 µg and 4643.5 µg
12 hour urine Glu (Fig 2b) (200 mg/kg single oral dose): 38.45 µg and 57.79 µg and 49.69 µg and 35.38 µg and 50.26 µg and 67.43 µg
12 hour urine His (Fig 2b) (200 mg/kg single oral dose): 416.82 µg and 349.23 µg and 335.84 µg and 309.72 µg and 451.38 µg and 370.2 µg
12 hour urine Lys (Fig 2b) (200 mg/kg single oral dose): 104.5 µg and 123.16 µg and 131.26 µg and 79.18 µg and 151.5 µg and 70.63 µg
12 hour urine Met (Fig 2b) (200 mg/kg single oral dose): 123.47 µg and 86.31 µg and 49.16 µg and 59.08 µg and 101.09 µg and 139.58 µg
12 hour urine Phe (Fig 2b) (200 mg/kg single oral dose): 133.44 µg and 84.26 µg and 51.41 µg and 40.35 µg and 175.28 µg and 83.35 µg
12 hour urine Pro (Fig 2b) (200 mg/kg single oral dose): 13.11 µg and 14.35 µg and 18.33 µg and 8.21 µg and 20.58 µg and 15.61 µg
12 hour urine Ser (Fig 2b) (200 mg/kg single oral dose): 170.69 µg and 159.37 µg and 110.1 µg and 92.34 µg and 194.17 µg and 159.84 µg
12 hour urine Thr (Fig 2b) (200 mg/kg single oral dose): 631.21 µg and 617.4 µg and 618.83 µg and 576.45 µg and 832.11 µg and 699.79 µg
12 hour urine Trp (Fig 2b) (200 mg/kg single oral dose): 40.01 µg and 30.26 µg and 27.35 µg and 18.62 µg and 33.13 µg and 31.85 µg
12 hour urine Tyr (Fig 2b) (200 mg/kg single oral dose): 480.66 µg and 434.44 µg and 355.04 µg and 315.96 µg and 607.88 µg and 491.56 µg
12 hour urine Arg (Fig 2b) (250 mg/kg single oral dose): 80.65 µg and 55.84 µg and 88.5 µg and 63.14 µg and 86.48 µg and 72.88 µg
12 hour urine Gln (Fig 2b) (250 mg/kg single oral dose): 7107.31 µg and 3727.75 µg and 5603.56 µg and 4267.69 µg and 6411.47 µg and 5312.07 µg
12 hour urine Glu (Fig 2b) (250 mg/kg single oral dose): 72.56 µg and 44.09 µg and 57.4 µg and 37.58 µg and 54.56 µg and 45.85 µg
12 hour urine His (Fig 2b) (250 mg/kg single oral dose): 551.64 µg and 312.28 µg and 484.93 µg and 357.16 µg and 531.6 µg and 380.26 µg
12 hour urine Lys (Fig 2b) (250 mg/kg single oral dose): 195.46 µg and 113.58 µg and 174.58 µg and 158.8 µg and 185.91 µg and 135.3 µg
12 hour urine Met (Fig 2b) (250 mg/kg single oral dose): 187.74 µg and 68.61 µg and 113.61 µg and 89.08 µg and 102.86 µg and 165.83 µg
12 hour urine Phe (Fig 2b) (250 mg/kg single oral dose): 183.47 µg and 73.49 µg and 113.19 µg and 97.89 µg and 98.25 µg and 112.7 µg
12 hour urine Pro (Fig 2b) (250 mg/kg single oral dose): 23.91 µg and 11.83 µg and 17.19 µg and 13.18 µg and 15.23 µg and 18.44 µg
12 hour urine Ser (Fig 2b) (250 mg/kg single oral dose): 292.3 µg and 114.91 µg and 195.78 µg and 144.05 µg and 202.42 µg and 201.61 µg
12 hour urine Thr (Fig 2b) (250 mg/kg single oral dose): 952.09 µg and 536.61 µg and 931.14 µg and 639.81 µg and 964.07 µg and 684.47 µg
12 hour urine Trp (Fig 2b) (250 mg/kg single oral dose): 51.77 µg and 27.86 µg and 38.14 µg and 35.4 µg and 37.19 µg and 32.26 µg
12 hour urine Tyr (Fig 2b) (250 mg/kg single oral dose): 668.76 µg and 364.7 µg and 555.89 µg and 445.94 µg and 662.56 µg and 523.46 µg
increase in urinary Gln excretion vs vehicle (250 mg/kg, 12 h urine): 84 fold
increase in urinary His excretion vs vehicle (250 mg/kg, 12 h urine): 32 fold
increase in urinary Thr excretion vs vehicle (250 mg/kg, 12 h urine): 29 fold
urinary Gln excretion, mean ± SD (250 mg/kg, 12 h urine): 5,405 ± 1270 μg
urinary His excretion, mean ± SD (250 mg/kg, 12 h urine): 436 ± 100 µg
urinary Thr excretion, mean ± SD (250 mg/kg, 12 h urine): 785 ± 187 µg
urinary Pro excretion, mean ± SD (250 mg/kg, 12 h urine, effect negligible): 17 ± 4 µg
urine Gln excretion [1]: 1587.77 and 1811.58 and 1136.33 and 1371.1 and 1542.95 and 797.75
urine Phe excretion [1]: 31.41 and 35.2 and 15.95 and 12.69 and 89.66 and 34.45
glutamine excreted in urine, mean ± SD [2]: 1,375 ± 362 μg
urinary excretion of Phe, mean ± SD [2]: 37 ± 28 µg
